According to paper PMC3914206:

These compounds were tested against T1, panel of 442 kinases (Homo sapiens, UniProt Q8WXR4). Details: Compound Concentration 10 µM.
T1 construct: purchased KINOMEscan
T1 sequence (Q8WXR4 1-1341): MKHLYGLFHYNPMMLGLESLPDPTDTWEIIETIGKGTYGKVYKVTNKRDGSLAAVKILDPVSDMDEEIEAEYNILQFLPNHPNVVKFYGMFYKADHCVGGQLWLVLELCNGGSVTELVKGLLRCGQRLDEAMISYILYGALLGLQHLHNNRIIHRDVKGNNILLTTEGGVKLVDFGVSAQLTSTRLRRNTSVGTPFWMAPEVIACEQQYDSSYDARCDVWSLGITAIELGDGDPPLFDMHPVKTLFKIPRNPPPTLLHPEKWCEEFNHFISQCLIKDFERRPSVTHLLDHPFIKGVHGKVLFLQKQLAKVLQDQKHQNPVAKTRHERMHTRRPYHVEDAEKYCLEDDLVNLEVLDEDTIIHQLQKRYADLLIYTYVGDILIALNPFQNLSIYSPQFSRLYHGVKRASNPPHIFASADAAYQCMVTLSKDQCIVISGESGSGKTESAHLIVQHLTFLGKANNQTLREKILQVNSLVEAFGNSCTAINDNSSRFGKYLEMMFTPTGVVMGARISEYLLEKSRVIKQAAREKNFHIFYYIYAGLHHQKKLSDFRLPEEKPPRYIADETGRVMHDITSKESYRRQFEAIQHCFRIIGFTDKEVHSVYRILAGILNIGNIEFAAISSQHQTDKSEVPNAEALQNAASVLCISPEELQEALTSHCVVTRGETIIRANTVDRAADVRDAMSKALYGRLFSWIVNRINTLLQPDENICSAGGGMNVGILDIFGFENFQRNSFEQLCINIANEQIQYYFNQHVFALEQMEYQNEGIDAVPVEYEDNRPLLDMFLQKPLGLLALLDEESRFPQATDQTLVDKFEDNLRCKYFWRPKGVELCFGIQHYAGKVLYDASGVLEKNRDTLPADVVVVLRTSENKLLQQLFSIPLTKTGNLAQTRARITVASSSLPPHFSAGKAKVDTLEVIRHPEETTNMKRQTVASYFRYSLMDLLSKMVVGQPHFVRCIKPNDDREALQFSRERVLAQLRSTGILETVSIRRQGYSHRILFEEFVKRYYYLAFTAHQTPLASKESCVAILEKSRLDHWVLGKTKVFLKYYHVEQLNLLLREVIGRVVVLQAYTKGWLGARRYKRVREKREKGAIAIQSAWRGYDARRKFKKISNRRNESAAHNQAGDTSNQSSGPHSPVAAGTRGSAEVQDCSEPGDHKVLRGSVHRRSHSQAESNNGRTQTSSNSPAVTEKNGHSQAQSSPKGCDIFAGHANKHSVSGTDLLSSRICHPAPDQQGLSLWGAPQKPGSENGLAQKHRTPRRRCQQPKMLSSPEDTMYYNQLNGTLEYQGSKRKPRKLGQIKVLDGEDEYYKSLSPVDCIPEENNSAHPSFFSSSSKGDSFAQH
Type: binding
From the text: We assessed the selectivity of members of this scaffold using the KINOMEscan methodology across a near comprehensive panel of 442 kinases [[18,27]].

Row | Compound | KINOMEscan: MYO3B
1 | COc1cc(C(=O)N2CCC(N3CCN(C)CC3)CC2)ccc1Nc1ncc2c(n1)N(C1CCCC1)c1ccccc1C(=O)N2C [Compound 25, 11-cyclopentyl-2-((2-methoxy-4-(4-(4-methylpiperazin-1-yl)piperidine-1-carbonyl)phenyl)amino)-5-methyl-5H-benzo[e]pyrimido[5,4-b][1,4]diazepin-6(11H)-one] | 100
2 | CCOc1cc(C(=O)N2CCC(N3CCN(C)CC3)CC2)ccc1Nc1ncc2c(n1)N(C1CCCC1)c1ccccc1C(=O)N2C [Compound 26] | 100
3 | COc1cc(C(=O)N2CCC(N3CCN(C)CC3)CC2)ccc1Nc1ncc2c(n1)N1CCc3cccc(c31)C(=O)N2C [Compound 24] | 76
4 | COc1cc(C(=O)N2CCC(N3CCN(C)CC3)CC2)ccc1Nc1ncc2c(n1)N(C)c1ccccc1C(=O)N2C [15 (LRRK2-IN-1)] | 83
